Test results reported in ChEMBL document CHEMBL2417420, “Autotaxin inhibition: development and application of computational tools to identify site-selective lead compounds” (Bioorg Med Chem, 2013).

Target: Autotaxin (Homo sapiens, UniProt Q13822)
Test: Inhibition of C-terminal FLAG-tagged human recombinant autotaxin using synthetic substrate FS-3 at 10 uM measured every 2 mins by FRET assay relative to control

| Structure (SMILES) | inhibition [%] |
| --- | --- |
| CC(O)C(NC(=O)c1ccc(N2CCN(C(=O)CCC(=O)c3ccccc3)CC2)nc1)C(N)=O (stereo not drawn) | 20 |
| CC1CCC(OCC(=O)N2CCN(c3ncccc3C(=O)N3CCCC3C(N)=O)CC2)C(C(C)C)C1 (stereo not drawn) | 20 |
| COc1cc(/C=c2/sc3n(c2=O)NC2(c4ccccc4)N(C)C(=O)N(C)C2(c2ccccc2)N=3)ccc1O (stereo not drawn) | 20 |
| COc1cc(/C=C2/SC(=S)N(C3CCCCC3)C2=O)ccc1OCc1ccccc1Cl | 0 |
| CCCOC(=O)c1ccc(/N=C/c2cccc(OC)c2O)cc1 | 10 |
| CCOC(=O)c1sc(NC(=O)c2ccc(Oc3ccc(C(=O)Nc4sc(C(=O)OCC)c(C)c4C(=O)OCC)cc3)cc2)c(C(=O)OCC)c1C | 10 |
| O=C(O)c1cc(-c2ccc(/C=C3/S/C(=N\Cc4ccccc4)N(Cc4ccccc4)C3=O)o2)ccc1Cl | 20 |
| CCCCCCOC(=O)Oc1ccc(/C=N/c2ccc(OCC)cc2)cc1 | 0 |
| CC(=O)C1=C(C)NC(SCC(=O)Nc2ccc(Br)cc2)=C(C#N)C1c1ccc(O)cc1 (stereo not drawn) | 30 |
| COc1ccc(-c2cc(C(F)(F)F)n3nc(C(=O)Nc4cc(Sc5ccc(Br)cc5)cc([N+](=O)[O-])c4)c(Cl)c3n2)cc1OC | 10 |
| Cc1cc(C)cc(CC(=O)N2CCN(c3ncccc3C(=O)NC(C(N)=O)C(C)O)CC2)c1 (stereo not drawn) | 0 |
| CCOC(=O)C(=O)NCC1CCC(c2cc3n(n2)CCN3S(=O)(=O)c2cccc(Cl)c2)CC1 (stereo not drawn) | 20 |
| O=C1/C(=C\c2cc(Cc3ccccc3)ccc2O)SC(=S)N1Cc1ccccc1 | 10 |
| CCCCn1c(CN2CC(C)CC(C)C2)nc2cc(C(=O)NCC(O)CO)ccc21 (stereo not drawn) | 0 |
| COc1ccc(OC)c(NC(=S)N2CCn3cccc3C2c2ccc(OC)c(OC)c2)c1 (stereo not drawn) | 30 |
| CCOc1cc(/C=C2/NC(=O)N(Cc3cccc(F)c3)C2=O)cc(Cl)c1OCC | 10 |

| Structure (SMILES) | inhibition [%] |
| --- | --- |
| COc1ccc(/C=c2/sc3n(c2=O)NC2(c4ccccc4)N(C)C(=O)N(C)C2(c2ccccc2)N=3)cc1O (stereo not drawn) | 10 |
| O=C(Cc1ccccc1OC(=O)Cn1c(=O)sc2ccccc21)Cn1c(=O)sc2ccccc21 | 0 |
| Cc1cccc(S(=O)(=O)N2CCn3nc(C4CCC(CNC(=O)CC(C)C)CC4)cc32)c1 (stereo not drawn) | 20 |
| Cc1[nH]n(-c2cc(Cl)c(S(=O)(=O)O)cc2Cl)c(=O)c1/N=N/c1cc(Nc2nc(Cl)nc(Nc3cccc(S(=O)(=O)O)c3)n2)ccc1S(=O)(=O)O | 10 |
| CCCCCCCCCCCCCCCCS(=O)(=O)c1ccc(S(=O)(=O)N/N=c2\sc3ccc(S(=O)(=O)O)cc3n2C)cc1C(=O)O | 20 |
| Cc1cc2cc(C#N)c(SCC(=O)Nc3ccc(N(C)C)cc3)nc2cc1C | 0 |
| O=C1c2ccccc2-c2ccc(S(=O)(=O)Nc3ccc(S(=O)(=O)Nc4nccs4)cc3)cc21 | 10 |
| O=C1/C(=C/c2cccc(Oc3ccccc3)c2)SC(=S)N1Cc1ccccc1 | 20 |
| O=C1/C(=C\c2cccc(OCc3ccccc3F)c2)SC(=S)N1Cc1ccccc1 | 10 |
| CC(CC(=O)N1CCCN(c2ccc(C(=O)NC(C(N)=O)C(C)O)cn2)CC1)c1ccccc1 (stereo not drawn) | 0 |
| CC(C)c1ccc(OCC(=O)N2CCC(CCCC3CCN(c4ccc(C(=O)N5CCCC5C(N)=O)cn4)CC3)CC2)cc1 (stereo not drawn) | 0 |
| COc1ccccc1/C=C1\SC(=O)N(CCC(=O)N2c3ccccc3Sc3ccccc32)C1=O | 20 |
| COc1cc(C2CC(=O)NC(SCC(N)=O)=C2C#N)ccc1O (stereo not drawn) | 0 |
| CCOc1ccc(/N=C\c2ccc(OCC)c(OCC)c2)cc1 | 0 |
| O=C(NCc1ccc(NC(=O)c2cn(Cc3ccccc3)c3ccccc23)cc1)c1cnc2cc(C(F)(F)F)ccc2c1O | 0 |

Continued, values first:

| inhibition [%] | Structure (SMILES) |
| --- | --- |
| 10 | CC(CNC(=O)c1cc(-c2ccccc2)nc2ccccc12)C(=O)NCCNc1ccccc1 (stereo not drawn) |
| 10 | CCN(CCCCOC(=O)c1ccc(OC)c(OC)c1)C(C)Cc1ccc(OC)cc1 (stereo not drawn) |
| 20 | COc1cccc(CCNC(=O)c2ccc3c(c2)nc(-c2cc(OC)cc(OC)c2)n3CCc2ccc(OC)c(OC)c2)c1 |
| 30 | COc1ccc(C2=NN(C(=O)CSc3nnc(CNC(=O)c4ccco4)n3-c3cc(C)ccc3C)C(c3ccc(OC)cc3)C2)cc1 (stereo not drawn) |
| 10 | COc1ccc(CCn2c(COc3ccccc3)nc3cc(C(=O)NCC(O)CO)ccc32)cc1OC (stereo not drawn) |
| 20 | CC(=O)N1CCc2cc(NC(=O)c3ccc4nc(C)c(N(C)C(=O)CCc5ccccc5)n4c3)ccc21 |
| 20 | COc1ccc(CNC(=O)c2cc(-c3ccc(OC)c(OC)c3)nc3ccc(CNC(=O)c4cccc(Cl)c4)cc23)c(OC)c1 |
| 30 | O=C(NCC(O)CO)c1ccc2c(c1)nc(COCc1ccccc1)n2Cc1ccco1 (stereo not drawn) |
| 0 | Cc1ccc(NC(=O)CN2C(=O)N/C(=C/c3ccc(OCc4cccc([N+](=O)[O-])c4)cc3)C2=O)cc1 |
| 20 | CC(C)Cc1ccc(C(C)C(=O)N2CCN(c3ncccc3C(=O)NC(C(N)=O)C(C)O)CC2)cc1 (stereo not drawn) |
| 0 | C#CCN1C(=O)S/C(=C/c2ccc(OCc3ccc4ccccc4c3)c(OCC)c2)C1=O |
| 10 | O=C(NC(S)Nc1ccc2oc(-c3ccc(-c4ccccc4)cc3)nc2c1)c1ccc([N+](=O)[O-])cc1 (stereo not drawn) |
| 0 | CCc1nc2ccc(C(=O)NCCc3c[nH]c4ccccc34)cn2c1N(C)C(=O)C1CCCCC1 |
| 20 | COc1ccc(CCn2c(C(C)Oc3ccccc3)nc3cc(C(=O)NCCOCCO)ccc32)cc1OC (stereo not drawn) |
| 10 | COc1ccc(-c2cc(C(=O)NC(C(=O)NCCCCCCO)C(C)C)c3ccccc3n2)cc1C (stereo not drawn) |
| 10 | CC1CCC(C(C)C)C(OCc2nc3cc(C(=O)NCCOCCO)ccc3n2Cc2ccco2)C1 (stereo not drawn) |

| inhibition [%] | Structure (SMILES) |
| --- | --- |
| 20 | CCc1cc2c(cc3c(=O)n(CCCC(=O)NCc4ccc(OC(C)C)cc4)ncn32)s1 |
| 30 | COc1cccc(/C=C2/NC(=O)N(c3cccc(Cl)c3)C2=O)c1OCc1cccc(C(=O)O)c1 |
| 30 | Cc1ccccc1C(=O)NCC1CCC(c2cc3n(n2)CCN3C(=O)COc2ccccc2)CC1 (stereo not drawn) |
| 0 | COc1ccc(-c2cc(C(=O)NC(C)(C)C(=O)NCCN(C(C)C)C(C)C)c3ccccc3n2)cc1 |
| 30 | CC(C)C(=O)NC(Cc1ccc(OCc2ccccc2)cc1)C(=O)NCCCN(C)c1ccccc1 (stereo not drawn) |
| 20 | COc1ccc(C2CC(=O)NC(SCC(=O)Nc3ccc(I)cc3)=C2C#N)cc1 (stereo not drawn) |
| 20 | O=C(O)c1cc(-c2ccc(/C=C3/SC(=S)N(CCc4ccccc4)C3=O)o2)ccc1Cl |
| 10 | COc1ccc(CCn2c(CCc3ccccc3)nc3cc(C(=O)NCCOCCO)ccc32)cc1OC |
| 30 | COc1ccccc1/C=C1\SC(=O)N(CCC(=O)N2c3ccccc3Sc3ccc(Cl)cc32)C1=O |
| 30 | COc1cc(OC)cc(-c2nc3cc(C(=O)NCCc4ccccc4)ccc3n2CCc2ccc(OC)c(OC)c2)c1 |
| 0 | CCn1c2ccccc2c2cc(/C=C3\SC(=S)N([C@H](Cc4ccccc4)C(=O)O)C3=O)ccc21 |
| 20 | COc1cccc(-c2ccc(C(=O)N(CCN)Cc3ccc(NC(C)=O)cc3)cn2)c1 |
| 20 | COc1ccc(OC)c(C(=O)NC(CC(=O)NCCc2c[nH]c3ccccc23)c2ccccc2)c1 (stereo not drawn) |
| 10 | O=C1/C(=C\c2ccc(OCc3cccc4ccccc34)cc2)SC(=S)N1c1cccc(F)c1 |
| 20 | COc1ccc(-c2cc(C(=O)NCCC(=O)NCc3ccccc3OC)c3ccccc3n2)cc1 |
| 30 | COc1cc(C2C(C#N)=C(SCC(=O)Nc3cccc4ccccc34)NC3=C2C(=O)CCC3)ccc1O (stereo not drawn) |
